From patent US8791064B2, “Beta-lactoglobulin-polysaccharide nanoparticles for hydrophobic bioactive compounds” (Technion Research and Development Foundation Ltd., priority 2008, dated 2014)
Several values for one entry are separate records, joined by “and”; a condition that tells them apart may be missing. Equal values may be shown once. Read-outs that look alike come from different tables or passages of the source.

What was measured:
[1] = cited from earlier work; for pI of β-lactoglobulin: literature value (Jameson et al., 2002)
[2] = Vitamin D2 accelerated shelf-life stress test at 30° C.; assay type: physicochemical; details: pH 4.25, 30° C., 125 hours
Protocol: FIG. 7: Effect of encapsulation on stability of vitamin D during an accelerated shelf-life stress test at pH 4.25: samples were stored at 30° C. in closed vials containing 10 mL of solution and 10 mL of air, for a period of 125 hours: (▪) VD2-loaded β-lactoglobulin) (▴) complexes of VD2-β-lactoglobulin-pectin (pH 4.25). (♦) control of unprotected VD2 in water.

[3] = Partition of vitamin D2 between nanocomplex pellet and serum (ultracentrifugation, RP-HPLC); assay type: physicochemical
Protocol: To evaluate the encapsulation of the vitamin within the nanoparticles, the partition of the vitamin between the particles and the serum was studied. For this purpose, an ultra centrifuge (15,000×g) was used to separate the nanocomplexes (pellet) from the serum (supernatant), and the concentration of vitamin D2 in the pellet was compared to that in the serum. Vitamin content of particles and serum was analyzed by solvent extraction followed by reversed phase HPLC, according to the method described in Semo et al., 2007, Food Hydrocolloids 21:936. […] Therefore, vitamin concentration in the nanoparticle pellet was 55 times higher than vitamin concentration in the serum, and 5.7 times higher than the initial concentration of the vitamin in the dispersion (13.5 μg mL^−1).

[4] = Electrophoretic mobility / zeta potential; assay type: physicochemical
Text: Four criteria were used in order to evaluate the β-lactoglobulin-polysaccharide nanocomplexes and find the conditions (pH and ratio) which yield transparent suspensions containing small and stable nanoparticles: Sedimentation—Qualitative observation of the solutions in glass vials, following overnight equilibration at room temperature; Turbidity—Measured by an Ultrospec 3000 spectrophotometer (GE Healthcare, Life Sciences, UK), at 600 nm using 1 cm path cuvettes: Samples were vortexed prior to analysis; Electrophoretic mobility (EM or μe)—Measured using a zeta potential/particle size analyzer NICOMP™ 380 (Particle Sizing Systems Ltd. Santa Barbara, Calif., Agilent Technologies Inc., USA). The EM was measured under a 3 V/cm e-field at 25° C.; and Particle size—measured by Dynamic Light Scattering using the NICOMP™380 at 23° C. using 0.933 cp for the viscosity of the medium.
The stability of these colloidal systems was studied by measuring the electrophoretic mobility (EM) of the colloidal particles (FIGS. 12 and 13). Because the ionic strength of the studied systems was very low, and the particles are both very small and “soft” (being aggregates of oppositely charged polymers), the precise calculation of zeta potential from EM is not possible, due to the complexity of the system, and the limitations of currently available theoretical models. […]

For CC/C=C\C/C=C\C/C=C\C/C=C\C/C=C\C/C=C\CCC(=O)O [DHA, docosahexaenoic acid], the “pKa of DHA” value ([1]; Namani et al., 2007) is listed as “≈ 8.5”.
With C=C1CC[C@H](O)C/C1=C/C=C1\CCC[C@]2(C)[C@@H]([C@H](C)/C=C/[C@H](C)C(C)C)CC[C@@H]12 [Vitamin D2, ergocalciferol] the “degradation of the vitamin (ranking)” value ([2]; unprotected control, vitamin D dispersion in water) was “fastest degradation rate”, the “degradation of the vitamin (ranking)” value ([2]; vitamin D2 in β-lactoglobulin-pectin nanocomplexes, closed vials with 10 mL air) was “slowest degradation” and the “vitamin concentration in the nanoparticle pellet relative to the initial concentration in the dispersion” value ([3]; initial concentration 13.5 μg mL^−1) was 5.7 times higher. The “Vitamin D2 concentration in the supernatant (serum)” value ([3]; β-lactoglobulin-pectin nanocomplex dispersion centrifuged at 15,000×g) was 1.4 µg/mL, the “vitamin concentration in the nanoparticle pellet relative to the serum” value ([3]; β-lactoglobulin-pectin nanocomplexes) was 55 times higher and the “Vitamin D2 concentration in the pellet” value ([3]; β-lactoglobulin-pectin nanocomplexes separated at 15,000×g, initial concentration 13.5 μg mL^−1) was 77.26 µg/mL.
For “β-lactoglobulin: bovine β-lactoglobulin isolate (Davisco), major whey protein, 18.4 kDa”, the “pI of β-lactoglobulin” value [1] is listed as 5.18 and 5.1, the “pI of β-lactoglobulin” value ([1]; listed as lactoglobulin) is listed as 5.18 and the “isoelectric point from electrophoretic mobility versus pH” value ([4]; 0.05% β-lactoglobulin alone, 25° C., low ionic strength (FIG. 13)) is listed as 5.2. The zeta potential ([4]; pure β-lactoglobulin 0.05% wt, no pectin, pH 3.5 to 4.5) was “+6 mV”.
